Experimental data taken from US12257251B2, “Use of FAK inhibitor in preparation of drug for treating tumors having NRAS mutation” (INXMED (NANJING) CO., LTD., priority 2019, dated 2025).

Assays:
[1] = Body weight change (tolerability) in the KYSE-270 xenograft study; format: in vivo, mouse; conditions: for Change in median weight: BI853520 50 mg/Kg qd, day 13 versus day 1
Procedure: 1.7. Monitoring tumor growth and side effects: Tumor diameters were measured with calipers three times a week. The volume [mm^3] of each tumor was calculated according to the equation “tumor volume=length×diameter^2×π/6”. To monitor the side effects of the treatment, the mice were checked daily for abnormalities and their body weights were measured three times a week. For ethical reasons, animals with tumors larger than 1.5 cm in diameter, ulcerated tumors, or 20% body weight loss were euthanized.
The wilcoxon test was used for comparison. For body weight, the percent change relative to initial body weight on day 1 was used as the target variable for statistical analysis. The number of animals, and the median, minimum and maximum weight changes in each group were calculated.
One-sided test to compare all treatment groups with control group was performed for observing: • reduction in tumor volume (inhibition of tumor growth, efficacy parameter) and • reduction in weight changes (weight loss, tolerance parameters).
Within each subtopic, p-values for the efficacy parameter were compared and adjusted for multiple times according to Bonferroni-Holm. The p-value for the tolerance parameter was kept constant so as not to overlook possible side effects. Significance level was fixed at α=5%. A p-value (adjusted) of less than 0.05 was considered to show a statistically significant difference between groups, and 0.05≤p-value<0.10 was considered as an indicative difference. Statistical evaluations were performed using the SAS software package version 9.4 (SAS Institute Inc., Cary NC, USA).

[2] = tested on: GAK (NRAS^Q61L) melanoma cell line; assay: GAK CDX model (melanoma with an NRAS mutation): tumor growth; format: in vivo, mouse; conditions: for Tumor growth compared to the control group (in words): GAK model, daily treatment; for Mean TGI: daily, based on relative tumor volume on day 14
Procedure: (§1) 1.1. Test compound: BI853520, which was synthesized according to the method in the patent WO2010058032. BI853520 was formulated with 0.5% hydroxyethyl cellulose (Ashland).
(§2) 1.2. Cells: The melanoma cell line GAK was purchased from JCRB Cell Bank, and HMVII cells were purchased from Sigma. GAK originated in the inguinal lymph nodes of patients with vaginal melanoma, whereas HMVII originated in primary vaginal melanoma. GAK and HMVII cells were cultured in tissue culture flasks containing 5% CO2 at 37° C. The media were Ham's F12 containing 10% heat-inactivated FBS and Ham's F10 containing 15% FBS, respectively. All media were supplemented with 100 U/mL penicillin, […] streptomycin, and 2 mM GlutaMAX. All cell culture reagents were purchased from GIBCO.
(§3) Both HMVII and GAK cell lines carried an NRAS mutation at the Q61 position. HMVII (NRAS^Q61K) and GAK (NRAS^Q61L)
(§4) 1.3. Mice: 4-week-old female balb/c nude mice (purchased from Beijing Vital River Laboratory Animal Technology Co., Ltd.). After arriving in the animal room, the mice were allowed to acclimate to the new environment for at least 2 weeks before being used for assay. The animals were housed under standard conditions (temperature: 21.5±1.5° C., humidity: 55±10%). A Standard diet and autoclaved tap water were provided ad libitum. All animal care and experimental procedures were performed in accordance with the animal care ethics guidelines approved by the Medical Ethics Committee of Beijing Cancer Hospital and Research Institute.
(§5) To establish subcutaneous tumors, HMVII and GAK cells were harvested by trypsinization, centrifuged, washed and resuspended in ice-cold PBS+5% FCS. Then 100 l of the cell suspension containing 5×10^6 cells was injected subcutaneously into the right flank of nude mice (1 site per mouse). When tumors were well established and reached a median volume of approximately 400-600 mm^3, mice were randomly assigned to the treatment group and the control group.
(§6) 1.5. Administration: BI 853520 was formulated in 0.5% hydroxyethyl cellulose, which was intragastrically administered through gavage needle every day, and the dosage was 10 mL/Kg body weight.
(§7) Tumor diameters were measured twice a week with calipers. The volume [mm^3] of each tumor was calculated according to the equation “tumor volume=length×diameter^2×π/6”. Animals were sacrificed at the end of the study (approximately two weeks after the start of treatment). During the study, animals with necrotic tumors or tumors exceeding 2000 mm^3 in size were sacrificed for ethical reasons.
(§8) Tumor volumes were statistically assessed at the end of the assay. For tumor volume, relative values were used.
(§9) The number of observations, and the median, minimum and maximum tumor volumes were calculated. For a quick overview of possible treatment effects, the following metrics were calculated: • Relative tumor volume: (T/C)
(§10) [formula] • TGI from day 1 to day d: TGI=100×[(Cd−C1)−(Td−T1)]/(Cd−C1) • wherein, C1, T1=mean relative tumor volume in control and treatment groups at the start of the assay (day 1); • Cd, Td=mean relative tumor volume in control and treatment groups at the end of the assay (day d).
(§11) Statistical evaluation was performed using the Student's t-test function in Microsoft Excel, using two-tailed distribution and two-sample equal variance type.
(§12) The significance level was fixed at α=5%. […]

[3] = tested on: HMVII (NRAS^Q61K) melanoma cell line; assay: HMVII CDX model (melanoma with an NRAS mutation): tumor growth; format: in vivo, mouse; conditions: for Tumor growth compared to the control group (in words): HMVII model, daily treatment; for Mean TGI: daily, based on relative tumor volume on day 14
Procedure: as §1, §2, §3, §4, §5, §6, §7, §8, §9, §10, §11, §12

[4] = in vivo
[5] = tested on: 37 different tumors (human tumor CDX); conditions: across CDX models of 37 different tumors; cited from earlier work

## COc1cc(C(=O)NC2CCN(C)CC2)c(F)cc1Nc1ncc(C(F)(F)F)c(Oc2cccc3c2C(=O)N(C)C3)n1 [BI853520]
[1]; 50 mg/kg
  Change in median weight: +2.8%
[1]; listed as BI 853520, 50 mg/kg
  Change in median weight: 2.8%
[1]; BI 853520 50 mg/kg
  Tolerability (in words): well tolerated
[2]
  Tumor growth compared to the control group (in words): inhibit tumor growth
[2]; listed as BI 853520
  Tumor growth compared to the control group (in words): delayed tumor growth
[2]; GAK, 50 mg/kg (1st week), 25 mg/kg (2nd week), daily gavage, day 14
  Mean tumor volume: 548 ± 144 mm^3
[2]; GAK, 50 mg/kg (1st week), 25 mg/kg (2nd week)
  Mean TGI: 80%
[2]; GAK, 50 mg/kg (1st week), 25 mg/kg (2nd week), listed as BI 853520
  Mean TGI: 80%
[3]
  Tumor growth compared to the control group (in words): inhibit tumor growth
[3]; listed as BI 853520
  Tumor growth compared to the control group (in words): delayed tumor growth
[3]; HMVII, 50 mg/kg (1st week), 25 mg/kg (2nd week), daily gavage, day 14
  Mean tumor volume: 671 ± 606 mm^3
[3]; HMVII, 50 mg/kg (1st week), 25 mg/kg (2nd week)
  Mean TGI: 60%
[3]; HMVII, 50 mg/kg (1st week), 25 mg/kg (2nd week), listed as BI 853520
  Mean TGI: 60%
[4]
  Highest daily dose without limiting toxicity: 100 mg/kg
[5]
  TGI (tumor growth inhibition) span: 0 to 107%
